In the assay the test system is BALB/c mice. Nature of the assay: In vivo fLuc mRNA expression after IV dose, whole body and organ bioluminescence. The conditions noted are these: for luciferase expression in vivo, comparison of monomer order isomers: Compound 31 versus Compound 41; for fLuc (luciferase) expression in vivo: BALB/c mice, IV, luminescence 6 hours after dose, lipid block screen. From the text:
In one particular instance, peptoids disclosed herein were formulated into delivery vehicles by first dissolving in ethanol along with DSPC, cholesterol, and DMG-PEG2000 at weight ratio of 20:1.8:7.2:1.8 (Formulation D22 in Table 3, above), then mixed with firefly luciferase (fLuc) mRNA dissolved in an aqueous buffer at a volume ratio of 1:3 via microfluidic nanoprecipitation on a turbulent mixing device, resulting in small, low dispersity particles. Physical particle properties were characterized. Delivery vehicles with initial sizes larger than 120 nm were not brought forward into in vivo screening as liver fenestrae primarily accommodate LNPs sized under 100 nm. In vivo expression of delivery vehicles comprising peptoids with varied headgroups was evaluated using fLuc expression in BALB/c mice 6 hours after IV dose (FIG. 1). […] The aminoethyl and aminopropyl headgroups both show preferential expression in lung (FIG. 2), potentially due to the high basicity of the pendant primary amine, as groups with higher pKas are known to accumulate in that organ. […] While spleen and lung selectivity merit further optimization for future therapeutic applications, liver-selective targets were used for further studies herein to prepare for systemic delivery of antibody targets and maximize their serum expression with anti-RSV cargo.
Intravenous administration. The delivery vehicle complexes disclosed herein are effective for in vivo administration of Fluc mRNA to BALB/c mice through multiple routes of administration. In general, delivery system complexes were administered at a dose of 0.5 mg/kg via a tail-vein injection, and the resulting bioluminescence was quantified after 6 hours. Organ-specific bioluminescence was quantified by sacrificing the treated animal, dissecting out the organs of interest, and separately quantifying the resulting bioluminescence
In one particular instance, to investigate how the peptoid lipid block impacts in vivo expression, delivery vehicles with diameter larger than 120 nm were excluded and remaining candidates were administered IV to BALB/c mice. Luminescence was measured after 6 hours and the resulting expression in liver, lung and spleen were quantified. Even without changing the cationic headgroup, luciferase expression spanned 4 orders of magnitude as a result of altering the lipid block in this series. […] In vivo expression of all candidates was then fit to a multi-parameter model containing the 4 input parameters to understand the individual contributions of each factor to overall performance. […] Contour plots of the impact of these factors on expression (all using Ehx as the branched/unsaturated monomer) are shown in FIG. 4.
For imaging studies, female BALB/c mice (6-8 weeks old) were obtained and acclimatized for a minimum of 3 days prior to experiments. The animals were maintained on a 12 hour light cycle in a temperature and humidity controlled room. A daily health check was performed as well as food and water check. For dosing, mice were injected with 2.5 μg fLuc mRNA-containing delivery vehicles intravenously in 100 μL total injection volume. At 6 hours post-injection, mice were anesthetized with isoflurane, and injected intraperitoneally with 30 mg/mL D-luciferin at a dose of 10 μL per gram bodyweight intraperitoneally. Imaging was done 10 minutes post D-luciferin injection using an IVIS® Spectrum Imaging System. Immediately after in vivo imaging, mice were terminally bled by cardiac puncture and euthanized. The organs of interest were harvested, placed in black 24-well plates, and imaged. Living Image® software was used to quantify the total photon flux in regions of interest. For secreted protein studies, mice were injected with aRSV mRNA-containing delivery vehicles intravenously in 100 μL total injection volume. Mice were euthanized after 24 hours, with serum collection at 6 and 24 hours post-injection. […]

Entries after “also recorded” stand apart in the source; their conditions may differ. Where a SMILES comes first, the peptide text is derived from it. [ ]: non-standard residue; d: D form. N(2-ethylhexyl)Gly = CCCCC(CC)CNCC(=O)O; Gly(N-dodecyl) = CCCCCCCCCCCCNCC(=O)O; N(CH(CH2OH)2)Gly = O=C(O)CNC(CO)CO; NHexGly = CCCCCCNCC(=O)O

In the case of `CCCCCCCCCCCCN(CC(=O)N(CC(=O)N(CC(=O)N(CCCCCCCCCCCC)CC(=O)N(CC(=O)N(CC(N)=O)CC(CC)CCCC)CC(CC)CCCC)CC(CC)CCCC)CC(CC)CCCC)C(=O)CNC(CO)CO` (centres unmarked) [Compound 31] (H-[N(CH(CH2OH)2)Gly][Gly(N-dodecyl)][N(2-ethylhexyl)Gly][N(2-ethylhexyl)Gly][Gly(N-dodecyl)][N(2-ethylhexyl)Gly][N(2-ethylhexyl)Gly]-NH2), the “luciferase expression in vivo, comparison of monomer order isomers” value is listed as “within error”.

On to `CCCCCCN(CC(N)=O)C(=O)CN(CC(CC)CCCC)C(=O)CN(CC(CC)CCCC)C(=O)CN(CCCCCC)C(=O)CN(CC(CC)CCCC)C(=O)CN(CC(CC)CCCC)C(=O)CNC(CO)CO` (centres unmarked) [Compound 12] (H-[N(CH(CH2OH)2)Gly][N(2-ethylhexyl)Gly][N(2-ethylhexyl)Gly][NHexGly][N(2-ethylhexyl)Gly][N(2-ethylhexyl)Gly][NHexGly]-NH2), for which the “fLuc (luciferase) expression in vivo” value is on record as “top expressers; also recorded: highest overall fLuc expression”.

As for `CCCCCCCCCCCCN(CC(=O)N(CC(=O)N(CC(=O)N(CCCCCCCCCCCC)CC(=O)N(CC(N)=O)CC(CC)CCCC)CC(CC)CCCC)CC(CC)CCCC)C(=O)CN(CC(CC)CCCC)C(=O)CNC(CO)CO` (centres unmarked) [Compound 41] (H-[N(CH(CH2OH)2)Gly][N(2-ethylhexyl)Gly][Gly(N-dodecyl)][N(2-ethylhexyl)Gly][N(2-ethylhexyl)Gly][Gly(N-dodecyl)][N(2-ethylhexyl)Gly]-NH2), the “fLuc (luciferase) expression in vivo” value is “top expressers” and the “luciferase expression in vivo, comparison of monomer order isomers” value is “within error”.

On to `CCCCCCCCCCCCN(CC(=O)N(CC(N)=O)CC(CC)CCCC)C(=O)CN(CCCCCC)C(=O)CN(CC(CC)CCCC)C(=O)CN(CCCCCCCCCCCC)C(=O)CN(CCCCCC)C(=O)CNC(CO)CO` (centres unmarked) [Compound 34] (H-[N(CH(CH2OH)2)Gly][NHexGly][Gly(N-dodecyl)][N(2-ethylhexyl)Gly][NHexGly][Gly(N-dodecyl)][N(2-ethylhexyl)Gly]-NH2), for which the “fLuc (luciferase) expression in vivo” value is listed as “top expressers”.
